# According to patent US7872051B2 (priority 2004, dated 2011):
# Where two headings read alike, the source gives them in different places.
# Legend:
# [1] = test system: influenza virus A/Sydney/5/97; assay: Trial 1 virucidal assay of PMD (CPE on MDCK cells); assay type: cell-based
# MDCK cells [2] = assay: Trial 1 acute toxicity assay of PMD; details: PMD 2%, 0.5%, 0.25% and 0.1% w/v
# Method: The toxicity of PMD at the following concentrations in cell maintenance media was determined on a cell line with MDCK cells: • 2.5 mg/ml (0.25% w/v) • 5 mg/ml (0.5% w/v) • 20 mg/ml (2% w/v)
# A cell only control was also implemented by following the same procedure (steps 2-6), but substituting PMD with cell maintenance media.
# Toxicity was determined by toxicity-induced CPE (cytopathic effect) observations, which was visually scored using microscopy techniques. Toxicity-induced CPE is characterised by burst or rounded cells, which have become dissociated from their neighbouring cells, or the presence of cellular debris. […]
# MDCK cells [3] = details: 5 min exposure, count after 24 h vs cell only control, rounded to nearest 5
# Method: (§1) PMD was tested at the following concentrations: • 2% w/v (20 mg/ml) • 1% w/v (10 mg/ml) • 0.5% w/v (5 mg/ml • 0.25% w/v (2.5 mg/ml)
# (§2) Each PMD concentration was made up in 100% isopropyl and then sufficient cell infection media added such that the final concentration of isopropyl was always 10%.
# (§3) The different concentrations were made up by taking into account the initial dilution of the compound that occurs in the toxicity assay (step 1) and virucidal assay (step 4). The dilution factors for both assays are 2 and 1.1, respectively.
# (§4) Each of the four PMD concentrations was tested for toxicity on each of the three cell lines.
# (§5) A “cell only” control was also implemented by following the same procedure but substituting PMD (step 1) with infection media.
# (§6) The procedure for the toxicity assay was as follows: • 1) Cells (200 μl), at 2×10^6 cells/ml, were added to PMD (200 μl) and the reaction incubated for 5 minutes at room temperature. • 2) The reaction was terminated by the addition of infection media (3.6 ml) appropriate to the cell line. • 3) The terminated reaction (1 ml) was added, in triplicate, to the relevant wells of a 24-well plate. • 4) The cells were incubated for 24 hours at 37° C., 5% CO2. • 5) After the incubation period, the cells were trypsinised, the appropriate triplicate wells pooled together and a viable cell count performed using Trypan blue dye. • 6) The toxicity of PMD was determined by calculating the percentage cell survival of the test cells in comparison to the control cells.
# Solubility in water = assay type: physicochemical
# Urbani SARS = assay type: cell-based, Urbani SARS virus; details: for Kill rate: line gradient of FIG. 3
# [4] = test system: HSV-1 (Herpes Simplex Virus type 1); assay: Trial 2 virucidal assay, HSV-1 on Vero cells; assay type: cell-based; details: for Kill rate: gradient between the 1 minute and 5 minute time-points (FIG. 2)
# C1008 cells = details: 5 min exposure, count after 24 h vs cell only control, rounded to nearest 5
# Method: as §1, §2, §3, §4, §5, §6
# [5] = test system: A/Sydney/5/97 (human influenza virus H3N2); assay: Trial 2 virucidal assay, A/Sydney/5/97 on MDCK cells; assay type: cell-based; details: for Kill rate: line gradient of FIG. 4
# Vero cells = details: 5 min exposure, count after 24 h vs cell only control, rounded to nearest 5
# Method: as §1, §2, §3, §4, §5, §6
smiles,measurement,setting,value
"CC1CCC(C(C)(C)O)C(O)C1 (stereo not drawn) [PMD, p-menthane-3,8-diol]",Viral replication as evidenced by cell survival,[1],no viral replication
same,Virucidal effect,"[1]; PMD 0.5%, 0.25% and 0.1%, MDCK cells (cells were killed)",no virucidal effect
same,Toxicity on MDCK cells,MDCK cells [2],do not exhibit toxicity
same,Percentage cell survival,MDCK cells [3]; PMD 0.25% w/v,40%
same,Percentage cell survival,MDCK cells [3]; PMD 0.5% w/v,100%
same,Percentage cell survival,MDCK cells [3]; PMD 2% w/v,85%
same,Solubility in water,Solubility in water,poorly soluble
same,Antiviral effect,"Urbani SARS; PMD 0.25%, 10 seconds' exposure",effective
same,Effectiveness against the virus,Urbani SARS; Urbani SARS,effective
same,Log reduction in viral titre,"Urbani SARS; Urbani SARS, PMD 0.25% w/v, contact time 10 seconds",1 −log10 TCID50/ml
same,Log reduction in viral titre,"Urbani SARS; Urbani SARS, PMD 0.25% w/v, contact time 30 seconds",2 −log10 TCID50/ml
same,Log reduction in viral titre,"Urbani SARS; Urbani SARS, PMD 0.25% w/v, contact time 60 seconds (1 minute)",1.5 −log10 TCID50/ml
same,Log reduction in viral titre,"Urbani SARS; Urbani SARS, PMD 0.25% w/v, contact time 300 seconds (5 minutes)",2 −log10 TCID50/ml
same,Kill rate,"Urbani SARS; Urbani SARS, PMD 0.25% w/v",4.0 −log10 TCID50/ml/min
same,Log reduction in viral titre,"Urbani SARS; Urbani SARS, PMD 0.5% w/v, contact time 10 seconds",1.5 −log10 TCID50/ml
same,Log reduction in viral titre,"Urbani SARS; Urbani SARS, PMD 0.5% w/v, contact time 30 seconds",2.5 −log10 TCID50/ml
same,Log reduction in viral titre,"Urbani SARS; Urbani SARS, PMD 0.5% w/v, contact time 60 seconds (1 minute)",2.5 −log10 TCID50/ml
same,Log reduction in viral titre,"Urbani SARS; Urbani SARS, PMD 0.5% w/v, contact time 300 seconds (5 minutes)",2.5 −log10 TCID50/ml
same,Kill rate,"Urbani SARS; Urbani SARS, PMD 0.5% w/v",6.0 −log10 TCID50/ml/min
same,Log reduction in viral titre,"Urbani SARS; Urbani SARS, PMD 1% w/v, contact time 10 seconds",2 −log10 TCID50/ml
same,Log reduction in viral titre,"Urbani SARS; Urbani SARS, PMD 1% w/v, contact time 30 seconds",1.5 −log10 TCID50/ml
same,Log reduction in viral titre,"Urbani SARS; Urbani SARS, PMD 1% w/v, contact time 60 seconds (1 minute)",2 −log10 TCID50/ml
same,Log reduction in viral titre,"Urbani SARS; Urbani SARS, PMD 1% w/v, contact time 300 seconds (5 minutes)",1.5 −log10 TCID50/ml
same,Kill rate,"Urbani SARS; Urbani SARS, PMD 1% w/v",6.0 −log10 TCID50/ml/min
same,Log reduction in viral titre,"Urbani SARS; Urbani SARS, PMD 2% w/v, contact time 10 seconds",1.5 −log10 TCID50/ml
same,Log reduction in viral titre,"Urbani SARS; Urbani SARS, PMD 2% w/v, contact time 30 seconds",1 −log10 TCID50/ml
same,Log reduction in viral titre,"Urbani SARS; Urbani SARS, PMD 2% w/v, contact time 60 seconds (1 minute)",1.5 −log10 TCID50/ml
same,Log reduction in viral titre,"Urbani SARS; Urbani SARS, PMD 2% w/v, contact time 300 seconds (5 minutes)",1.5 −log10 TCID50/ml
same,Kill rate,"Urbani SARS; Urbani SARS, PMD 2% w/v",6.0 −log10 TCID50/ml/min
same,Reduction in viral titre (significance),"Urbani SARS; all four concentrations, all contact times",significant reductions in viral titre
same,Effectiveness against the virus,[4]; HSV-1,effective
same,Log reduction in viral titre,"[4]; HSV-1, PMD 0.25% w/v, contact time 10 seconds",0 −log10 TCID50/ml
same,Log reduction in viral titre,"[4]; HSV-1, PMD 0.25% w/v, contact time 30 seconds",0 −log10 TCID50/ml
same,Log reduction in viral titre,"[4]; HSV-1, PMD 0.25% w/v, contact time 60 seconds (1 minute)",0 −log10 TCID50/ml
same,Log reduction in viral titre,"[4]; HSV-1, PMD 0.25% w/v, contact time 300 seconds (5 minutes)",0.5 −log10 TCID50/ml
same,Log reduction in viral titre,"[4]; HSV-1, PMD 0.5% w/v, contact time 10 seconds",0 −log10 TCID50/ml
same,Log reduction in viral titre,"[4]; HSV-1, PMD 0.5% w/v, contact time 30 seconds",0 −log10 TCID50/ml
same,Log reduction in viral titre,"[4]; HSV-1, PMD 0.5% w/v, contact time 60 seconds (1 minute)",0 −log10 TCID50/ml
same,Log reduction in viral titre,"[4]; HSV-1, PMD 0.5% w/v, contact time 300 seconds (5 minutes)",0 −log10 TCID50/ml
same,Log reduction in viral titre,"[4]; HSV-1, PMD 1% w/v, contact time 10 seconds",0 −log10 TCID50/ml
same,Log reduction in viral titre,"[4]; HSV-1, PMD 1% w/v, contact time 30 seconds",0.5 −log10 TCID50/ml
same,Log reduction in viral titre,"[4]; HSV-1, PMD 1% w/v, contact time 60 seconds (1 minute)",0.5 −log10 TCID50/ml
same,Log reduction in viral titre,"[4]; HSV-1, PMD 1% w/v, contact time 300 seconds (5 minutes)",1.5 −log10 TCID50/ml
same,Kill rate,"[4]; HSV-1, PMD 1% w/v",0.3 −log10 TCID50/ml/min
same,Log reduction in viral titre,"[4]; HSV-1, PMD 2% w/v, contact time 10 seconds",0 −log10 TCID50/ml
same,Log reduction in viral titre,"[4]; HSV-1, PMD 2% w/v, contact time 30 seconds",0 −log10 TCID50/ml
same,Log reduction in viral titre,"[4]; HSV-1, PMD 2% w/v, contact time 60 seconds (1 minute)",0.5 −log10 TCID50/ml
same,Log reduction in viral titre,"[4]; HSV-1, PMD 2% w/v, contact time 300 seconds (5 minutes)",2.5 −log10 TCID50/ml
same,Kill rate,"[4]; HSV-1, PMD 2% w/v",0.5 −log10 TCID50/ml/min
same,Antiviral activity,[4]; PMD 0.25% w/v and 0.5% w/v,did not exhibit any antiviral activity
same,Reduction in viral titre (significance),"[4]; PMD 1% w/v and 2% w/v, 5 minute contact time",Significant reduction in viral titre
same,Reduction in viral titre (significance),[4]; all other concentrations and contact times,no significant reduction in viral titre
same,PMD concentration desirable for a significant effect,[4]; contact time of 5 minutes,at least 1 % w/v
same,Percentage cell survival,"C1008 cells; C1008, PMD 0.25% w/v",80%
same,Percentage cell survival,"C1008 cells; C1008, PMD 0.5% w/v",60%
same,Percentage cell survival,"C1008 cells; C1008, PMD 2% w/v",100%
same,PMD concentration desirable for a significant antiviral action,[5]; 10 seconds' contact time,at least 1 % w/v
same,Log reduction in viral titre,"[5]; A/Sydney/5/97, PMD 0.25% w/v, contact time 10 seconds",0.4 −log10 TCID50/ml
same,Log reduction in viral titre,"[5]; A/Sydney/5/97, PMD 0.25% w/v, contact time 30 seconds",1.9 −log10 TCID50/ml
same,Log reduction in viral titre,"[5]; A/Sydney/5/97, PMD 0.25% w/v, contact time 60 seconds (1 minute)",1.9 −log10 TCID50/ml
same,Log reduction in viral titre,"[5]; A/Sydney/5/97, PMD 0.25% w/v, contact time 300 seconds (5 minutes)",1.4 −log10 TCID50/ml
same,Kill rate,"[5]; A/Sydney/5/97, PMD 0.25% w/v",4.5 −log10 TCID50/ml/min
same,Log reduction in viral titre,"[5]; A/Sydney/5/97, PMD 0.5% w/v, contact time 10 seconds",0.4 −log10 TCID50/ml
same,Log reduction in viral titre,"[5]; A/Sydney/5/97, PMD 0.5% w/v, contact time 30 seconds",1.9 −log10 TCID50/ml
same,Log reduction in viral titre,"[5]; A/Sydney/5/97, PMD 0.5% w/v, contact time 60 seconds (1 minute)",2.4 −log10 TCID50/ml
same,Log reduction in viral titre,"[5]; A/Sydney/5/97, PMD 0.5% w/v, contact time 300 seconds (5 minutes)",1.9 −log10 TCID50/ml
same,Kill rate,"[5]; A/Sydney/5/97, PMD 0.5% w/v",4.8 −log10 TCID50/ml/min
same,Log reduction in viral titre,"[5]; A/Sydney/5/97, PMD 1% w/v, contact time 10 seconds",1.9 −log10 TCID50/ml
same,Log reduction in viral titre,"[5]; A/Sydney/5/97, PMD 1% w/v, contact time 30 seconds",2.4 −log10 TCID50/ml
same,Log reduction in viral titre,"[5]; A/Sydney/5/97, PMD 1% w/v, contact time 60 seconds (1 minute)",2.4 −log10 TCID50/ml
same,Log reduction in viral titre,"[5]; A/Sydney/5/97, PMD 1% w/v, contact time 300 seconds (5 minutes)",2.4 −log10 TCID50/ml
same,Kill rate,"[5]; A/Sydney/5/97, PMD 1% w/v",12.0 −log10 TCID50/ml/min
same,Log reduction in viral titre,"[5]; A/Sydney/5/97, PMD 2% w/v, contact time 10 seconds",1.9 −log10 TCID50/ml
same,Log reduction in viral titre,"[5]; A/Sydney/5/97, PMD 2% w/v, contact time 30 seconds",2.4 −log10 TCID50/ml
same,Log reduction in viral titre,"[5]; A/Sydney/5/97, PMD 2% w/v, contact time 60 seconds (1 minute)",2.4 −log10 TCID50/ml
same,Log reduction in viral titre,"[5]; A/Sydney/5/97, PMD 2% w/v, contact time 300 seconds (5 minutes)",2.4 −log10 TCID50/ml
same,Kill rate,"[5]; A/Sydney/5/97, PMD 2% w/v",12.0 −log10 TCID50/ml/min
same,Reduction of viral titre,"[5]; PMD 1% w/v and 2% w/v, all contact time points",1.9-2.4 log10 TCID50/ml
same,Reduction of infection (significance),"[5]; all concentrations tested, except 0.25% w/v and 0.5% w/v at the 10 second contact time",significantly reduces
same,Effectiveness against the virus,[5]; influenza virus A/Sydney/5/97,effective
same,Reduction of viral titre,"[5]; the two lower concentrations (0.25%, 0.5% w/v), 30 second to 5 minute contact times",1.9-2.4 log10 TCID50/ml
same,Percentage cell survival,Vero cells; PMD 0.25% w/v,65%
same,Percentage cell survival,Vero cells; PMD 0.5% w/v,65%
same,Percentage cell survival,Vero cells; PMD 2% w/v,100%
